Experiment [1] relates to human glioma cell line U251MG. Put plainly: AAV-vector-mediated EGFP transgene expression, fluorescence microscope. In kind it is cell-based. The note with it: 24 hours. The method, then: (§1) FK228 which had been isolated and purified through the method described in Japanese Patent Publication (kokoku) No. 7-64872 was employed as a histone deacetylase inhibitor. The FK228 was dissolved in ethanol for storage. When in use, the FK228 was diluted with a medium, to thereby regulate the FK228 concentration to fall within a range of 0 to 100 ng/mL.
An AAV vector genome plasmid and a helper plasmid were introduced into 293 cells through the calcium phosphate method, and AAV vectors (types 1 to 5) which express EGFP (enhanced green fluorescent protein) under the control of a cytomegalovirus (CMV) promoter were prepared. Specifically, the AAV vector preparation was performed through the method described in the following references. • Reference 1: Methods 2002; 8: 237-247 (described above) • Reference 2: Methods Enzymol 2002; 346: 378-393 (described above) • 3. Cells and Cell Culture (1) Human Glioma Cell Line; U251MG, U87MG
U251MG was obtained from JCRB Cell Bank, National Institute of Health Sciences. […]
(§2) The effect of FK228 on enhancing expression of a transgene was evaluated with glioma cells. Type-2 AAV vector (1×10^4 genome copies/cell) and FK228 (0, 0.01, 0.1, 1, 10, or 100 ng/mL) were added to a culture supernatant of the human glioma cell line U251MG, and 24 hours later, expression of EGFP was observed under a fluorescence microscope.

Experiment [2] deals with head and neck cancer cell line HEp-2. As to the kind of experiment: AAV-vector-mediated EGFP transgene expression. The note with it: FK228 1 ng/mL. The class given is cell-based, human. The method, then: as §1
(§3) An AAV vector genome plasmid and a helper plasmid were introduced into 293 cells through the calcium phosphate method, and AAV vectors (types 1 to 5) which express EGFP (enhanced green fluorescent protein) under the control of a cytomegalovirus (CMV) promoter were prepared. […]
as §2
(§4) Similar to the case of U251MG, in the cases of the head and neck cancer cell line HEp-2 and the subcultured human glioma cells (prepared from an operative specimen), the effect of FK228 in enhancing AAV-vector-mediated gene transfer was evaluated.

Experiment [3] relates to subcultured human glioma cells (prepared from an operative specimen). As to the kind of experiment: AAV-vector-mediated EGFP transgene expression. The class given is cell-based. The note with it: FK228 1 ng/mL. The procedure: as §1, §3, §2, §4
In experiment [4] the test system is U251MG. Put plainly: Percent occurrence of EGFP-positive cells by FACS analysis. The class given is cell-based, human. The note with it: FK228 1 ng/mL, type-2 AAV vector, 24 hours, FIG. 1B. The method, then:
(§5) Type-2 AAV vector (1×10^4 genome copies/cell) and FK228 (0, 0.01, 0.1, or 1 ng/mL) were added to a culture supernatant of U251MG, and 24 hours later, the percent occurrence of cells positive for CD51 (integrin) or EGFP was calculated through FACS analysis. The FACS analysis was performed through a customary method by use of FACSCan (Becton Dickinson, San Jose, Calif.) and CellQuest software (Becton Dickinson, San Jose, Calif.).
(§6) PE-labeled anti-CD51 monoclonal antibody: 13C2 was obtained from Cymbus Biotechnology Ltd., Chandlers Ford, UK. Dead cells were detected by means of 7-amino-actinomycin D (Via-Probe; Pharmingen, San Diego, Calif.).
(§7) Cells were washed with a FACS buffer (PBS containing 5% FBS and 0.05% sodium azide), and then incubated with the antibody on ice for 30 minutes. Fluorescences attributed to EGFP, PE, and Via-Probe were detected by FL1, FL2, and FL3, respectively. Cells negative for Via-Probe; i.e., viable cells, were employed for measuring expression of EGFP and/or CD51.

For experiment [5], the system named is CD51 (integrin). As to the kind of experiment: Percent occurrence of CD51 (integrin)-positive cells by FACS analysis. The note with it: FK228 0, 0.01, 0.1 or 1 ng/mL; 24 hours; U251MG; FIG. 1A. In kind it is cell-based, human. The method, then: as §5, §6, §7
A general note: A flow cytometer gives signals particle by particle.

Experiment [6] relates to U251MG. Put plainly: Number of viral genome copies taken into cells, real-time PCR. The note with it: FK228 1 ng/mL. The class given is cell-based, human. The procedure:
Type-2 AAV vector (1×10^4 genome copies/cell) and FK228 (1 ng/mL) were added to a culture supernatant of U251MG, and the number of viral genome copies taken into cells was semi-quantified by means of real-time PCR (ABI, Prism 7700; QIAGEN, SYBR Green PCR kit QuantiTect) (performed through the method according to Mol. Ther. Aug. 6, 2002 (2): 272-278). After U251MG cells were infected with the type-2 AAV vector, the number of intracellular genome copies was measured in a time-course manner (0, 2, 4, 12, and 24 hours).
In general terms: In qPCR the cycle at which signal appears reflects the starting amount.

Structures are written as SMILES.

Data on 1 molecule can be found in US7988957B2, “Gene introduction efficiency enhancer” (Genesis Healthcare Corp., priority 2003, dated 2011).

For the molecule `C/C=C1\NC(=O)[C@H]2CSSCC/C=C/[C@H](CC(=O)N[C@H](C(C)C)C(=O)N2)OC(=O)[C@H](C(C)C)NC1=O` [FK228], the “EGFP expression enhancing effect” value in experiment [1] (FK228 at 1 ng/mL or more, type-2 AAV vector) is listed as “remarkable EGFP expression enhancing effect”. Besides, the “expression of EGFP” value in experiment [1] (Type-2 AAV vector 1×10^4 genome copies/cell, FK228 0, 0.01, 0.1, 1, 10 or 100 ng/mL) is on record as “enhanced in an FK228-dose-dependent manner”. Also, the EGFP expression entry in experiment [2] and in experiment [3] was “enhanced” in each case. In addition, the “percent occurrence of EGFP-positive cells” value in experiment [4] was “sharply increased”. Further, the “percent occurrence of integrin-positive cells” value in experiment [5] was “gradual increase”. For the same molecule, the “genome copy number in the FK228-treated group” value in experiment [6] (24 hours after the infection) is reported as “slight increase”. In addition, in experiment [6] (type-2 AAV vector, 0, 2, 4, 12 and 24 hours, FIG. 2), the “genome copy number, FK228-treated group versus control group (only a solvent)” value was “No significant difference”.
